Patent EP2818472A1, “Imidazo[4,5-c]pyridine and pyrrolo[3,2-c]pyridine compounds as G-protein-coupled receptor kinase 5 (GRK5) modulators” (Max-Planck-Gesellschaft zur Förderung der Wissenschaften …, priority 2013, dated 2014)

test system: beta-TC6 cells; experiment: Insulin HTRF assay (relative activity Ar) in beta-TC6 cells; format: cell-based, mouse; conditions: Mus musculus, Beta-TC6, 4 h, insulin HTRF, supernatant of beta-TC6 cells, incubation with test compound at 37°C for 2, 3, 4h; read-out: Ar (relative activity)
Procedure, shortened: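 beta-TC6 cells (15k/well, seeded 24 or 48 h) washed, then exposed to compound in induction buffer (0.5% DMSO final) for 2, 3 or 4 h at 37°C.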

`COc1cccc(-c2nc3c(Nc4cc(OC)c(OC)c(OC)c4)nccc3[nH]2)c1F` [Compound 467, 2-(2-fluoro-3-methoxy-phenyl)-N-(3,4,5-trimethoxyphenyl)-1H-imidazo[4,5-c]pyridin-4-amine] and `COc1ccc(Nc2nccc3[nH]c(-c4cccc(OC)c4F)nc23)cc1OC` [Compound 469, N-(3,4-dimethoxyphenyl)-2-(2-fluoro-3-methoxy-phenyl)-1H-imidazo[4,5-c]pyridin-4-amine] cannot be ordered by Emax: greater than 100% for the first, greater than 100% for the second.

Compared with `COc1cccc(Nc2nccc3[nH]c(-c4cccc(OC)c4F)nc23)c1` [Compound 468, 2-(2-fluoro-3-methoxy-phenyl)-N-(3-methoxyphenyl)-1H-imidazo[4,5-c]pyridin-4-amine], `COc1cccc(-c2nc3c(Nc4cccc(O)c4)nccc3[nH]2)c1F` [Compound 478, 3-[[2-(2-fluoro-3-methoxy-phenyl)-1H-imidazo[4,5-c]pyridin-4-yl]amino]phenol] is higher in Emax: 30 to 50% for the first, 50 to 100% for the second.

First: COc1ccc(Nc2nccc3[nH]c(-c4cccc(OC)c4F)nc23)cn1 [Compound 470, 2-(2-fluoro-3-methoxy-phenyl)-N-(6-methoxy-3-pyridyl)-1H-imidazo[4,5-c]pyridin-4-amine]
Second: COc1ccc(Nc2nccc3[nH]c(-c4cccc(OC)c4F)nc23)cc1O [Compound 479, 5-[[2-(2-fluoro-3-methoxy-phenyl)-1H-imidazo[4,5-c]pyridin-4-yl]amino]-2-methoxy-phenol]
The Emax of the first is lower: 30 to 50% for the first, greater than 100% for the second.

Compared with `COc1cccc(-c2nc3c(Nc4ccc(Cl)cc4)nccc3[nH]2)c1F` [Compound 471, N-(4-chlorophenyl)-2-(2-fluoro-3-methoxy-phenyl)-1H-imidazo[4,5-c]pyridin-4-amine], `COc1cccc(-c2nc3c(Nc4ccc(F)c(Cl)c4)nccc3[nH]2)c1F` [Compound 474, N-(3-chloro-4-fluoro-phenyl)-2-(2-fluoro-3-methoxy-phenyl)-1H-imidazo[4,5-c]pyridin-4-amine] is higher in Emax: 0 to 30% for the first, 30 to 50% for the second.

First: COc1cccc(-c2nc3c(Nc4ccccc4)nccc3[nH]2)c1F [Compound 472, 2-(2-fluoro-3-methoxy-phenyl)-N-phenyl-1H-imidazo[4,5-c]pyridin-4-amine]
Second: COc1cccc(-c2nc3c(Nc4cccc(F)c4)nccc3[nH]2)c1F [Compound 481, 2-(2-fluoro-3-methoxy-phenyl)-N-(3-fluorophenyl)-1H-imidazo[4,5-c]pyridin-4-amine]
The Emax of the first is higher: 50 to 100% for the first, 30 to 50% for the second.

First: COc1cccc(-c2nc3c(NC4CCC(N)CC4)nccc3[nH]2)c1F (stereo not shown) [Compound 476, N4-[2-(2-fluoro-3-methoxy-phenyl)-1H-imidazo[4,5-c]pyridin-4-yl]cyclohexane-1,4-diamine]
Second: COc1cccc(-c2nc3c(N4CCOCC4)nccc3[nH]2)c1F [Compound 480, 4-[2-(2-fluoro-3-methoxy-phenyl)-1H-imidazo[4,5-c]pyridin-4-yl]morpholine]
The Emax of the first is lower: 0 to 30% for the first, 30 to 50% for the second.

`COc1cccc(-c2nc3c(Nc4cccc(S(C)(=O)=O)c4)nccc3[nH]2)c1F` [Compound 477, 2-(2-fluoro-3-methoxy-phenyl)-N-(3-methylsulfonylphenyl)-1H-imidazo[4,5-c]pyridin-4-amine] and `CNc1nc2cnc(Nc3cccc(NS(C)(=O)=O)c3)cc2n1-c1cc(OC)c(OC)c(OC)c1` [Compound 492, N-[3-[[2-(methylamino)-1-(3,4,5-trimethoxyphenyl)imidazo[4,5-c]pyridin-6-yl]amino]phenyl]methanesulfonamide] fall in the same range of Emax: 30 to 50% for the first, 30 to 50% for the second.

`CNc1nc2cnc(Nc3cc(OC)c(OC)c(OC)c3)cc2n1-c1cc(OC)c(OC)c(OC)c1` [Compound 482, N2-methyl-N6,1-bis(3,4,5-trimethoxyphenyl)imidazo[4,5-c]pyridine-2,6-diamine] and `CNc1nc2cnc(Nc3ccc(OC)cc3OC)cc2n1-c1cc(OC)c(OC)c(OC)c1` [Compound 486, N6-(2,4-dimethoxyphenyl)-N2-methyl-1-(3,4,5-trimethoxyphenyl)imidazo[4,5-c]pyridine-2,6-diamine] fall in the same range of Emax: 30 to 50% for the first, 30 to 50% for the second.

`CNc1nc2cnc(Nc3ccc(NC(C)=O)cc3)cc2n1-c1cc(OC)c(OC)c(OC)c1` [Compound 483, N-[4-[[2-(methylamino)-1-(3,4,5-trimethoxyphenyl)imidazo[4,5-c]pyridin-6-yl]amino]phenyl]acetamide] and `CNc1nc2cnc(Nc3cccc(NC(C)=O)c3)cc2n1-c1cc(OC)c(OC)c(OC)c1` [Compound 493, N-[3-[[2-(methylamino)-1-(3,4,5-trimethoxyphenyl)imidazo[4,5-c]pyridin-6-yl]amino]phenyl]acetamide] fall in the same range of Emax: 50 to 100% for the first, 50 to 100% for the second.

Compared with `CNc1nc2cnc(Nc3cccc(OC)c3)cc2n1-c1cc(OC)c(OC)c(OC)c1` [Compound 484, N6-(3-methoxyphenyl)-N2-methyl-1-(3,4,5-trimethoxyphenyl)imidazo[4,5-c]pyridine-2,6-diamine], `CNc1nc2cnc(Nc3cccc(O)c3)cc2n1-c1cc(OC)c(OC)c(OC)c1` [Compound 491, 3-[[2-(methylamino)-1-(3,4,5-trimethoxyphenyl)imidazo[4,5-c]pyridin-6-yl]amino]phenol] is higher in Emax: 30 to 50% for the first, 50 to 100% for the second.

`CNc1nc2cnc(Nc3ccc(O)cc3)cc2n1-c1cc(OC)c(OC)c(OC)c1` [Compound 485, 4-[[2-(methylamino)-1-(3,4,5-trimethoxyphenyl)imidazo[4,5-c]pyridin-6-yl]amino]phenol] and `CNc1nc2cnc(Nc3ccc(OC)cc3)cc2n1-c1cc(OC)c(OC)c(OC)c1` [Compound 490, N6-(4-methoxyphenyl)-N2-methyl-1-(3,4,5-trimethoxyphenyl)imidazo[4,5-c]pyridine-2,6-diamine] fall in the same range of Emax: 50 to 100% for the first, 50 to 100% for the second.

First: CNc1nc2cnc(Nc3ccc4c(c3)OCCO4)cc2n1-c1cc(OC)c(OC)c(OC)c1 [Compound 487, N6-(2,3-dihydro-1,4-benzodioxin-6-yl)-N2-methyl-1-(3,4,5-trimethoxyphenyl)imidazo[4,5-c]pyridine-2,6-diamine]
Second: CNc1nc2cnc(Nc3cccc(F)c3)cc2n1-c1cc(OC)c(OC)c(OC)c1 [Compound 494, N6-(3-fluorophenyl)-N2-methyl-1-(3,4,5-trimethoxyphenyl)imidazo[4,5-c]pyridine-2,6-diamine]
The Emax of the first is higher: 50 to 100% for the first, 30 to 50% for the second.

`CNc1nc2cnc(Nc3ccc(OC)nc3)cc2n1-c1cc(OC)c(OC)c(OC)c1` [Compound 488, N6-(6-methoxy-3-pyridyl)-N2-methyl-1-(3,4,5-trimethoxyphenyl)imidazo[4,5-c]pyridine-2,6-diamine] and `CNc1nc2cnc(Nc3ccc(N4CCN(C)CC4)cc3)cc2n1-c1cc(OC)c(OC)c(OC)c1` [Compound 489, N2-methyl-N6-[4-(4-methylpiperazin-1-yl)phenyl]-1-(3,4,5-trimethoxyphenyl)imidazo[4,5-c]pyridine-2,6-diamine] fall in the same range of Emax: 50 to 100% for the first, 50 to 100% for the second.

In the case of `CNc1nc2cnc(Nc3ccc(OC)c(OC)c3)cc2n1CCOC` [Compound 495, N6-(3,4-dimethoxyphenyl)-1-(2-methoxyethyl)-N2-methyl-imidazo[4,5-c]pyridine-2,6-diamine], the Emax is reported as 30 to 50%.

same assay, conditions: Mus musculus, Beta-TC6, 4 h, read-out: Ar (relative activity)

Compound `CCN(CC)CCNC(=O)c1ccc(Nc2nccc3[nH]c(-c4cccc(OC)c4F)nc23)cc1` [Compound 473, N-(2-diethylaminoethyl)-4-[[2-(2-fluoro-3-methoxy-phenyl)-1H-imidazo[4,5-c]pyridin-4-yl]amino]benzamide] has an Emax greater than 100%.
